The results in this text go back to patent US5612356A, “Heterocycle-containing carbonic acid derivatives” (Eisai Co., Ltd., priority 1992, dated 1997).

Each structure is given as a SMILES string. Where only a bound is given, the exact number is not on record here.

In one test the test system is HL60 cell. Briefly: Antagonism against all-trans retinoic acid in inducing the differentiation of HL60 cell (CD11b-positive cells, flow cytometry). Type of test: cell-based. The following applies: Homo sapiens, HL-60, 120 h, all-trans retinoic acid 30 nM, 5 days. The text has this:
Antagonism against all-trans retinoic acid in inducing the differentiation of HL60 cell
It has been known that a human promyelocytic leukemia cell strain HL60 is differentiated into granulocytic cells in the presence of all-trans retinoic acid (see Breitman, T., Selonick, S., and Collins, S., Proc. Natl. Acad. Sci. USA, 77, 2936(1980)). Generally, a cell forms a specific differentiation antigen on its surface, when it has achieved differentiation. When an HL60 cell is differentiated into a granulocytic cell, CD11b which is an antigen discriminating granulocyte or monocute is formed on the surface of the cell (see Fontana, J. A., Reppuci, A., Durham, J. P., and Mirand, D., Cancer Res. 46, 2469 to 2473 (1986)). The antagonism against the differentiation of HL60 into granulocytic cell which is induced by all-trans retionic acid was studied by utilizing the above phenomenon.
HL60 cells were cultured and maintained in a culture medium prepared by adding 10% of inactivated bovine fetus serum, 1 mM of sodium pyruvate, 50 μM of β-mercaptoethanol, 100 I.U./ml of penicillin and 100 μg/ml of streptomycin to RPMI1640 (a culture medium formulated in Rosewell Park Memorial Institute).
The resulting plate was incubated in an incubator (5% CO2 /air) for 5 days. After the incubation, the cells of each well were recovered into a test tube, followed by the addition thereto of an FITC-labeled monoclonal antibody reactive with CD11b which is an antigen specific to granulocyte or monocute. The resulting cells were immobilized with 0.2% paraformaldehyde. The immobilized cell suspension was examined by flow cytometry for the proportion of CD11b-positive cells in the above HL60 cell group in each well (see Miller, L. J., Schwarting, R., and Springer, T. A., J. Immunol. 137, 2891 to 2900 (1986)).

Test [1] deals with T1, retinoic acid receptor (RAR) (Homo sapiens, UniProt P10276).
T1 construct: by the use of an extract from HL 60 cell nuclei; endogenous in cells; host or cells: HL60 human promyelocytic leukemia cells, 0.8 M KCl nuclear extract
T1 sequence (P10276 1-462): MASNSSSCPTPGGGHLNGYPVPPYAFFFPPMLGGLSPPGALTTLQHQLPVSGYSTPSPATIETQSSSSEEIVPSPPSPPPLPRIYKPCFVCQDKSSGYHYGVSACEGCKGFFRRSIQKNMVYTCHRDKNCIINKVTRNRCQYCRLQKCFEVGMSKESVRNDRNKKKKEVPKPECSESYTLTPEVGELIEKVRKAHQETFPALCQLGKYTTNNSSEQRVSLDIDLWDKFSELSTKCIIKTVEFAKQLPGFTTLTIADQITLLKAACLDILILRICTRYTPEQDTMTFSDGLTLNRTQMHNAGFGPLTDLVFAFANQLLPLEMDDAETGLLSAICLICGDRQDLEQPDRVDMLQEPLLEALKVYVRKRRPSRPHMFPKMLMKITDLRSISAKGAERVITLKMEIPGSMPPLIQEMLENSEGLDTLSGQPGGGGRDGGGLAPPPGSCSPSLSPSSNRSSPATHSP
Briefly: Receptor binding assay using human promyelocytic leukemia cell HL60 (nuclear extract), inhibition of 3H-all-trans retinoic acid binding to RAR. The settings on record: HL60 cell nucleus extract, 4° C., 16 hours. The protocol:
Receptor binding assay using human promyelocytic leukemia cell, HL60
It has been known that a receptor for all-trans retinoic acid [i.e., retinoic acid receptor (RAR)] is present in the nucleus of HL 60 cell (see Clara Nervi et al., Proc. Natl. Acad. Sci. USA, 86, 5854 (1989)). Therefore, the extent of specific binding of all-trans retionic acid to RAR was determined by the use of an extract from HL 60 cell nuclei; and the ability of each compound to bind to RAR was determined based on the inhibitory activity of the compound against the above specific binding.
The above cell nucleus extract was prepared as follows.
HL 60 cells (5×10^8) were suspended in 15 ml of a solution A [comprising 5 mM of sodium phosphate (pH: 7.4), 10 mM of monothioglycerol,10% (v/v) of glycerol, 1 mM of phenylmethylsulfonyl fluoride (PMSF), 10 μg/ml of aprotinin and 25 μg/ml of leupeptin). The obtained suspension was homogenized with a homogenizer and centrifuged to remove a formed supernatant. The obtained sediment was suspended in 15 ml of a solution B [comprising 10 mM of Tris-HCl (pH: 8.5), 10 mM of monothioglycerol, 10% (v/v) of glycerol, 1 mM of PMSF, 10 μg/ml of aprotinin, 25 μg/ml of leupeptin and 0.8 M of KC1]. The obtained suspension was allowed to stand at 4° C. for one hour and ultracentrifuged (under the conditions of 100,000×g and 4° C. for one hour). The supernatant thus obtained was stored in a state freezed at -80° C. and used as the cell nucleus extract [see Methods in Enzymology, 189: 248).
The receptor binding assay was conducted as follows.
180 μl of the above extract and 10 μl of a dilution of all-trans retionic acid or a compound to be tested were put in each well of a 96-well polypropylene plate, followed by the addition thereto of ^3 H-all-trans retionic acid in an amount of 10 μl/well. The plate was allowed to stand at 4° C. for 16 hours. A solution containing 3% of charcoal and 0.3% of dextran was added to the reaction mixture in the well and the obtained mixture was centrifuged to remove free ^3 H-all-trans retionic acid. The intensity of radiation of the supernatant was determined with a scintillation counter. The extent of specific binding of all-trans retinoic acid to RAR was determined by taking the intensity of radiation, observed when 200-fold excess of all-trans retinoic acid was added, as that of a nonspecific binding, and substracting the intensity of radiation thus taken from that of the one determined above.

As a reminder, the IC50 is the midpoint of a concentration-inhibition curve. A higher IC50 goes with weaker potency in that assay. As to `CCn1nc(-c2ccc(C(=O)O)cc2)c2c1-c1cc3c(cc1CC2)C(C)(C)CCC3(C)C` [Example 1, 4-(1-Ethyl-4,5,7,8,9,10-hexahydro-7,7,10,10-tetramethylanthra[2,1-d]pyrazol-3yl)benzoic acid], the figures for the IC50 (in the test on HL60 cell; in test [1]) were 700 nM and 4 nM, respectively.
On the same counts, the results for `CC(C)n1nc(-c2ccc(C(=O)O)cc2)c2c1-c1cc3c(cc1CC2)C(C)(C)CCC3(C)C` [Example 2] are 6700 nM and 50 nM.
On the same counts, the results for `CC1(C)CCC(C)(C)c2cc3c(cc21)CCc1c(-c2ccc(C(=O)O)cc2)nn(Cc2ccccc2)c1-3` [Example 4] are 1000 nM and below 0.5 nM.
Regarding `Cn1nc(-c2ccc(C(=O)O)cc2)c2c1-c1cc3c(cc1CC2)C(C)(C)CCC3(C)C` [Example 7, 4-(4,5,7,8,9,10-Hexahydro-1,7,7,10,10-pentamethylanthra[2,1-d]pyrazol-3-yl)benzoic acid], the IC50 with HL60 cell came to 560 nM; in test [1], 22 nM.
On the same counts, the results for `Cn1nc(-c2ccc(C(=O)O)cc2)c2c1-c1cc3c(cc1SC2)C(C)(C)CCC3(C)C` [Example 11] are 1200 nM and 9 nM.
Taken in the same sequence, the figures for `Cn1nc(-c2ccc(C(=O)O)cc2)c2ccc3cc4c(cc3c21)C(C)(C)CCC4(C)C` [Example 14, 4-(7,8,9,10-Tetrahydro-1,7,7,10,10-pentamethylanthra-[2,1-d]pyrazol-3-yl)benzoic acid] were 2200 nM and 50 nM.
On the same counts, the results for `CC1(C)CCC(C)(C)c2cc3c(cc21)CCc1c(-c2ccc(C(=O)O)cc2)cn(Cc2cccnc2)c1-3` [Example 16, 4-[4,5,7,8,9,10-Hexahydro-7,7,10,10-tetramethyl-1(3-pyridylmethyl)anthra[1,2-b]pyrrol-3-yl]benzoic acid] are 120 nM and below 0.5 nM.
With `CC1(C)CCC(C)(C)c2cc3c(cc21)CCc1c(-c2ccc(C(=O)O)cc2)cn(-c2ccccc2)c1-3` [Example 18], the IC50 with HL60 cell was found to be 2700 nM; in test [1], 4.2 nM.
Take `CC1(C)CCC(C)(C)c2cc3c(cc21)CCc1c(-c2ccc(C(=O)O)cc2)cn(-c2cccnc2)c1-3` [Example 19]: the IC50 in the test with HL60 cell worked out at 480 nM; in test [1], 0.5 nM.
Taken in the same sequence, the figures for `CCCCCn1cc(-c2ccc(C(=O)O)cc2)c2c1-c1cc3c(cc1CC2)C(C)(C)CCC3(C)C` [Example 22] were 14000 nM and 32 nM.
On the same counts, the results for `CC1(C)CCC(C)(C)c2cc3c(cc21)CCc1c(-c2ccc(C(=O)O)cc2)coc1-3` [Example 106, 4-(4,5,7,8,9,10-Hexahydro-7,7,10,10-tetramethylanthra-[1,2-b]furan-3-yl)benzoic acid] are 3800 nM and 26 nM.
On the same counts, the results for `CCCCCCCOc1cc2c(cc1/C(C)=C/c1ccc(C(=O)O)cc1)C(C)(C)CCS2(=O)=O` [Example R041-5253, reference compound] are 7200 nM and 9 nM.
